Experiments:
Type in all cases: biochemical
[1] = molecular target: T1, MMP-1 (Homo sapiens, UniProt P03956); assay: In vitro MMP-1 inhibition test; conditions: human MMP-1
T1 construct: purchased R&D Systems 901-MP
T1 sequence (P03956 100-469): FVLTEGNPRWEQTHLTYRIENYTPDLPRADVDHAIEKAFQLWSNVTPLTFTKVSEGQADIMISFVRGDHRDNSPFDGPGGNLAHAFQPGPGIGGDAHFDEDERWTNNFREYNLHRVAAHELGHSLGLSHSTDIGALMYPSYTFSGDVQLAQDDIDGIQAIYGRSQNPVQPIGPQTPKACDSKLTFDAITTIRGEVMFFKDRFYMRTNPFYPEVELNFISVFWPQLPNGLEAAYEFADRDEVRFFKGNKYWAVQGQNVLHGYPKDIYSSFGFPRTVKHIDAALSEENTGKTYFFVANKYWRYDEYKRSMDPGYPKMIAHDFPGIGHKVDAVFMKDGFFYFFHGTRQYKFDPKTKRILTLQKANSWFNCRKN
Excerpt: (§1) The MMP-mediated amidolytic cleavage of a suitable peptide substrate leads to an increase in fluorescent light here too. The signal intensity of the fluorescent light is directly proportional to the enzyme activity. The active concentration of a test compound at which half the enzyme is inhibited (50% signal intensity of the fluorescent light) is reported as the IC50 value.
(§2) Recombinant MMP-1 (R&D Systems, 901-MP) is chemically activated in accordance with the manufacturer's instructions using APMA. 1 μl of the test compound to be analysed (as a solution in DMSO, suitable concentrations e.g. 1 nM to 30 μM) is pipetted into 24 μl of activated enzyme (final concentration e.g. 2 nM) in reaction buffer (50 mM Tris/HCl pH 7.5, 10 mM CaCl2, 150 mM NaCl, 0.05% Brij®-35) in a white 384-hole microtiter plate (MTP). The enzymatic reaction is started by adding the intramolecularly quenched Mca-Pro-Leu-Gly-Leu-Dpa(Dnp)-Ala-Arg-NH2 substrate (final concentration e.g. 10 μM; R&D Systems, ES-001), so as to result in a total test volume of 50 μl. The course of the MMP-1 reaction is measured by measuring the fluorescence intensity (excitation 320 nm, emission 410 nm) over a suitable period of time (e.g. over 120 min at a temperature of 32° C.).

[2] = molecular target: T2, MMP-10 (Homo sapiens, UniProt P09238); assay: In vitro MMP-10 inhibition test; conditions: human MMP-10
T2 construct: purchased R&D Systems 910-MP
Excerpt: as §1
as §2, with “MMP-10” for “MMP-1”, “910-MP)” for “901-MP)”, “Mca-Arg-Pro-Lys-Pro-Val-Glu-Nval-Trp-Arg-Lys(Dnp)-NH2” for “Mca-Pro-Leu-Gly-Leu-Dpa(Dnp)-Ala-Arg-NH2”, “ES-002),” for “ES-001),”

[3] = molecular target: T3, MMP-13 (Homo sapiens, UniProt P45452); assay: In vitro MMP-13 inhibition test; conditions: human MMP-13
T3 construct: purchased R&D Systems 511-MP
Excerpt: as §1
as §2, with “Recombinant MMP-13” for “Recombinant MMP-1”, “Systems, 511-MP)” for “Systems, 901-MP)”, “e.g. 0.1” for “e.g. 2”, “the MMP-13” for “the MMP-1”

[4] = molecular target: T4, MMP-16 (Homo sapiens, UniProt P51512); assay: In vitro MMP-16 inhibition test; conditions: human MMP-16
T4 construct: purchased R&D Systems 1785-MP
Excerpt: as §1
Recombinant MMP-16 (R&D Systems, 1785-MP) is enzymatically activated in accordance with the manufacturer's instructions using recombinant furin (R&D Systems, 1503-SE). 1 μl of the test compound to be analysed (as a solution in DMSO, suitable concentrations e.g. 1 nM to 30 μM) is pipetted into 24 μl of activated enzyme (final concentration e.g. 1 nM) in reaction buffer (50 mM Tris/HCl pH 7.5, 10 mM CaCl2, 150 mM NaCl, 0.05% Brij®-35) in a white 384-hole microtiter plate (MTP). The enzymatic reaction is started by adding the intramolecularly quenched Mca-Lys-Pro-Leu-Gly-Leu-Dpa(Dnp)-Ala-Arg-NH2 substrate (final concentration e.g. 5 μM; R&D Systems, ES-010), so as to result in a total test volume of 50 μl. The course of the MMP-16 reaction is measured by measuring the fluorescence intensity (excitation 320 nm, emission 410 nm) over a suitable period of time (e.g. over 120 min at a temperature of 32° C.).

T2 sequence (P09238 99-476): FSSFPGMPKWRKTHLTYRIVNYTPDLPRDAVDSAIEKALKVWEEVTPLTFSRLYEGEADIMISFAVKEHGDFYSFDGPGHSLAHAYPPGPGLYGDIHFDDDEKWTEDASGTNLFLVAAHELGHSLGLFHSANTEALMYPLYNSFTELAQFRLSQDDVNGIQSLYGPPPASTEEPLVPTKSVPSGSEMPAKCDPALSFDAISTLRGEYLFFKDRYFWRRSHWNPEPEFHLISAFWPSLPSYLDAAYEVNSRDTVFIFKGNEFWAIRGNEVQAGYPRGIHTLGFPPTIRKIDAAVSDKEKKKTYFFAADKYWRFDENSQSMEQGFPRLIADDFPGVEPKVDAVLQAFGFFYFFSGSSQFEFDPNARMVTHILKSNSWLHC
T4 sequence (P51512 120-564 limits assumed): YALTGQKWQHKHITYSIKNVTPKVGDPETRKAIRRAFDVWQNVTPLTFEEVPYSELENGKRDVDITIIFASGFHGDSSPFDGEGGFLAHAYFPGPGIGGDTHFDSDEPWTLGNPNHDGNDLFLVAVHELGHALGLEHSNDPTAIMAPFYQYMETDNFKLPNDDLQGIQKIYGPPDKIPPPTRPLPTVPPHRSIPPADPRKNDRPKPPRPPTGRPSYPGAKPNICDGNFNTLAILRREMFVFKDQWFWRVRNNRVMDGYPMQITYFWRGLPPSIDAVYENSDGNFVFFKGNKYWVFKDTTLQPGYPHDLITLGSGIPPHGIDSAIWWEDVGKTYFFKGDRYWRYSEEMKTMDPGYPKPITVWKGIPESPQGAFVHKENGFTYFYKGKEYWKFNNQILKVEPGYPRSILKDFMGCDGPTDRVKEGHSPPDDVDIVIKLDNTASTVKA

IC50 [1] | IC50 [2] | IC50 [3] | IC50 [4] | Compound
> 40 µM | 28 µM | 2.2 µM | 38 µM | O=C(CC(CCn1nnc2ccccc2c1=O)C(=O)O)c1onc2cc(OCc3ccccc3)ccc12 (racemic) [Example 156, (+/−)-4-[6-(Benzyloxy)-2,1-benzoxazol-3-yl]-4-oxo-2-[2-(4-oxo-1,2,3-benzotriazin-3(4H)-yl)ethyl]butanoic acid]
> 40 µM | 0.19 µM | 0.29 µM | 4.9 µM | O=C(O)[C@H]1[C@H](Cn2nnc3ccc(C(F)(F)F)cc3c2=O)CC[C@@H]1C(=O)c1cc2cc(OCCc3ccccc3)ccc2o1 (racemic) [Example 157, (+/−)-(1RS,2SR,5RS)-2-{[4-Oxo-6-(trifluoromethyl)-1,2,3-benzotriazin-3(4H)-yl]methyl}-5-{[5-(2-phenylethoxy)-1-benzofur-2-yl]carbonyl}cyclopentanecarboxylic acid (racemate)]
> 40 µM | 13 µM | 1.8 µM | > 40 µM | O=C(CC(CCn1nnc2ccccc2c1=O)C(=O)O)c1cc2cc(OCCc3ccccc3)ccc2o1 (single isomer, unassigned; (+)) [Example 21, (+)-4-Oxo-2-[2-(4-oxo-1,2,3-benzotriazin-3(4H)-yl)ethyl]-4-[5-(2-phenylethoxy)-1-benzofur-2-yl]butanoic acid]
> 40 µM | 14 µM | 1.6 µM | > 40 µM | NC(=O)c1cccc(COc2ccc3oc(C(=O)CC(CCn4nnc5ccccc5c4=O)C(=O)O)cc3c2)c1 (single isomer, unassigned; (+)) [Example 34, (+)-4-{5-[(3-Carbamoylbenzyl)oxy]-1-benzofur-2-yl}-4-oxo-2-[2-(4-oxo-1,2,3-benzotriazin-3(4H)-yl)ethyl]butanoic acid]
> 40 µM | 12 µM | 3.6 µM | 21 µM | O=C(CC(CCn1nnc2ccccc2c1=O)C(=O)O)c1coc2cc(OCC3CCCC3)ccc12 (single isomer, unassigned; (+)) [Example 80, (+)-4-[6-(Cyclopentylmethoxy)-1-benzofur-3-yl]-4-oxo-2-[2-(4-oxo-1,2,3-benzotriazin-3(4H)-yl)ethyl]butanoic acid]
> 40 µM | 6.8 µM | 1.3 µM | > 40 µM | O=C(CC(CCn1nnc2ccccc2c1=O)C(=O)O)c1coc2cc(OCC3CCCCC3)ccc12 (single isomer, unassigned; (+)) [Example 82, (+)-4-[6-(Cyclohexylmethoxy)-1-benzofur-3-yl]-4-oxo-2-[2-(4-oxo-1,2,3-benzotriazin-3(4H)-yl)ethyl]butanoic acid]

The next lines start with the molecule.

Compound | IC50 [1] | IC50 [2] | IC50 [3] | IC50 [4]
CCCCCOc1ccc2c(C(=O)CC(CCn3nnc4ccccc4c3=O)C(=O)O)coc2c1 (single isomer, unassigned) [Example 91, 4-Oxo-2-[2-(4-oxo-1,2,3-benzotriazin-3(4H)-yl)ethyl]-4-[6-(pentyloxy)-1-benzofur-3-yl]butanoic acid] | > 40 µM | 4.7 µM | 0.37 µM | 13 µM
O=C(CC(CCn1nnc2ccccc2c1=O)C(=O)O)c1cc2cc(OCc3ccc(F)cc3)ccc2o1 (single isomer, unassigned; (+)) [Example 23, (+)-4-{5-[(4-Fluorobenzyl)oxy]-1-benzofur-2-yl}-4-oxo-2-[2-(4-oxo-1,2,3-benzotriazin-3(4H)-yl)ethyl]butanoic acid] | > 40 µM | 11 µM | 5.3 µM | 30 µM
O=C(CC(CCn1nnc2ccccc2c1=O)C(=O)O)c1cc2cc(OCc3ccccc3)ccc2o1 (single isomer, unassigned; (+)) [Example 30, (+)-4-[5-(Benzyloxy)-1-benzofur-2-yl]-4-oxo-2-[2-(4-oxo-1,2,3-benzotriazin-3(4H)-yl)ethyl]butanoic acid] | > 40 µM | 30 µM | 10 µM | > 40 µM
CCCCCCCOc1ccc2cc(C(=O)CC(CCn3nnc4ccccc4c3=O)C(=O)O)oc2c1 (single isomer, unassigned; (+)) [Example 69, (+)-4-[6-(Heptyloxy)-1-benzofur-2-yl]-4-oxo-2-[2-(4-oxo-1,2,3-benzotriazin-3(4H)-yl)ethyl]butanoic acid acid] | > 40 µM | 28 µM | 3.6 µM | > 40 µM
CCCCCCOc1ccc2c(C(=O)CC(CCn3nnc4ccccc4c3=O)C(=O)O)coc2c1 (single isomer, unassigned; (+)) [Example 100, (+)-4-[6-(Hexyloxy)-1-benzofur-3-yl]-4-oxo-2-[2-(4-oxo-1,2,3-benzotriazin-3(4H)-yl)ethyl]butanoic acid] | > 40 µM | 11 µM | 0.14 µM | > 40 µM
O=C(CC(CCn1nnc2ccccc2c1=O)C(=O)O)c1cc2ccc(OCC3CC3)cc2s1 (single isomer, unassigned; (+)) [Example 112, (+)-4-[6-(Cyclopropylmethoxy)-1-benzothiophen-2-yl]-4-oxo-2-[2-(4-oxo-1,2,3-benzotriazin-3(4H)-yl)ethyl]butanoic acid] | > 40 µM | 2.5 µM | 1.3 µM | 37 µM
O=C(CC(CCn1nnc2ccccc2c1=O)C(=O)O)c1cc2cc(OCCCC(F)(F)F)ccc2o1 (single isomer, unassigned; enantiomer 2) [Example 13, (+)-4-Oxo-2-[2-(4-oxo-1,2,3-benzotriazin-3(4H)-yl)ethyl]-4-[5-(4,4,4-trifluorobutoxy)-1-benzofur-2-yl]butanoic acid (enantiomer 2)] | > 40 µM | 15 µM | 4.6 µM | > 40 µM
O=C(C[C@H](CCn1nnc2ccccc2c1=O)C(=O)O)c1noc2cc(OCC3CCOCC3)ccc12 (single isomer, unassigned; enantiomer 2) [Example 135] | > 40 µM | 9 µM | 1.5 µM | 36 µM

Source: US20170121315A1, “HETEROBICYCLICALLY SUBSTITUTED 4-OXOBUTANE ACID DERIVATIVES AND USE THEREOF” (priority 2014, published 2017)
